Data published in publication PMC3557602 (Analytical biochemistry, 2012).
“Also recorded” adds a separate entry of the source. Structures can show the parent of a compound that is named as a salt. Values belong to the compound of their own block, whether it stands above or below them.

Columns and labels:
[1] = cited from earlier work
[2] = biological target: T1, Nterm-phos activity of human sEH (Homo sapiens, UniProt P34913); experiment: AttoPhos assay in kinetic mode; format: biochemical
T1 sequence (P34913 1-555): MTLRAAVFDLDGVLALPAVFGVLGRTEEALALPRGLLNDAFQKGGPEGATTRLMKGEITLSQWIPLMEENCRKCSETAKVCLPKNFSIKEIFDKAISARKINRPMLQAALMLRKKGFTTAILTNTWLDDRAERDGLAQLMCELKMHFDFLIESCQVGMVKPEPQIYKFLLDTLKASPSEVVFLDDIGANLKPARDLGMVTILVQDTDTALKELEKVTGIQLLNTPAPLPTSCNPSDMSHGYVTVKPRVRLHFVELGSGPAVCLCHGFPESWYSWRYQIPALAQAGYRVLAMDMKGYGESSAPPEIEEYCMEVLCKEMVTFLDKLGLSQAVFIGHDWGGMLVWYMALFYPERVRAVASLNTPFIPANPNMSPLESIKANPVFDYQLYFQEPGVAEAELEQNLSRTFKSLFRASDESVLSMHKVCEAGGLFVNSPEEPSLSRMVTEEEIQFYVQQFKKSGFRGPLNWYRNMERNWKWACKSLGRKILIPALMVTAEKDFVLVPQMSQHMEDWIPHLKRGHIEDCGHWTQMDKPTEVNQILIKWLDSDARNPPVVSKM

[3] = biological target: T1, Nterm-phos activity of human sEH; experiment: AttoPhos fluorescent endpoint HTS assay for sEH phosphatase activity; format: biochemical; details: for inhibition of Nterm-phos in library screen: pesticide library; for Nominal Inhibition (%): [E] 2.1 nM, AttoPhos 25 μM, 60 min, 96-well; for inhibition at 10 µM: read-out: inhibition of Nterm-phos in library screen
[4] = biological target: T2, Cterm-EH activity of human sEH (Homo sapiens, UniProt P34913); experiment: Inhibition of sEH epoxide hydrolase activity; format: biochemical; details: for IC50: IC50 for Cterm-EH
T2 sequence (P34913 1-555): T1 sequence (P34913 1-555)

[5] = biological target: T1, Nterm-phos activity of human sEH; experiment: Kinetic constants with a model of irreversible inhibition, AttoPhos 25 μM; format: biochemical
[6] = biological target: T1, Nterm-phos activity of human sEH; experiment: Reversibility; format: biochemical
[7] = biological target: T3, Nterm-phos expressed alone (Homo sapiens, UniProt P34913); experiment: Inhibition of the N-terminal domain expressed separately; format: biochemical; details: 10 μM for 5 min
T3 sequence (P34913 1-224 limits assumed): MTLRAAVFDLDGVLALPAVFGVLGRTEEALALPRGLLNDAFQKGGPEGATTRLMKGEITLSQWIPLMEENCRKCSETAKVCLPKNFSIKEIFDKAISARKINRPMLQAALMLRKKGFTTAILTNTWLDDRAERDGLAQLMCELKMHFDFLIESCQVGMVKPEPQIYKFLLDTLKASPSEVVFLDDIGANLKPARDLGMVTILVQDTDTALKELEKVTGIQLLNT

[8] = tested on: human alkaline phosphatase; experiment: Selectivity: alkaline phosphatase inhibition; format: biochemical
Cterm-EH expressed alone = biological target: T4, Cterm-EH expressed alone (Homo sapiens, UniProt P34913); experiment: Inhibition of the C-terminal domain expressed separately; format: biochemical; details: 10 μM for 5 min
T4 sequence (P34913 235-555 limits assumed): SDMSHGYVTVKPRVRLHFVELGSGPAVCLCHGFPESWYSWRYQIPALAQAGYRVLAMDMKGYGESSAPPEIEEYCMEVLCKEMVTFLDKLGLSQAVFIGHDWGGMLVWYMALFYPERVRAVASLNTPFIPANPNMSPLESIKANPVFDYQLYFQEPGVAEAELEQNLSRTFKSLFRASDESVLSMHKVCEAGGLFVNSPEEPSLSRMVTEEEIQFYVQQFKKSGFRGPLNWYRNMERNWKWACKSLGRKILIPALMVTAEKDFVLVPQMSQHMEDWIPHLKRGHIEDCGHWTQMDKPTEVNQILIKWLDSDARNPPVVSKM

human microsomal EH = biological target: T5, human microsomal EH (Homo sapiens, UniProt P07099); experiment: Selectivity: microsomal EH inhibition; format: biochemical
T5 sequence (P07099 1-455): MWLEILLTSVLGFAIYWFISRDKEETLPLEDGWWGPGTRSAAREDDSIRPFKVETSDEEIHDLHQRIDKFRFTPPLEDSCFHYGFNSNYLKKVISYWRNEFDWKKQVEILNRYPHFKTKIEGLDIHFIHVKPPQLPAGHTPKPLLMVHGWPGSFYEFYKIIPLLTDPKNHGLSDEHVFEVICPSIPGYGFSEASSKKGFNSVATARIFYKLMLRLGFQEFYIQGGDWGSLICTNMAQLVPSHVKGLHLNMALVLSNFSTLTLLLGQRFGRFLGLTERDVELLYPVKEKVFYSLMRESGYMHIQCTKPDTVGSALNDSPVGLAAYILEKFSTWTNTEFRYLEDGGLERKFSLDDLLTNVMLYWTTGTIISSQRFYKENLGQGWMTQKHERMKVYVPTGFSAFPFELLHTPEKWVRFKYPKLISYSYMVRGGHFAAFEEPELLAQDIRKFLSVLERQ

[9] = biological target: T2, Cterm-EH activity of human sEH; experiment: Kinetic constants with a model of irreversible inhibition, PHOME 50 μM; format: biochemical; details: n = 3
[10] = biological target: T2, Cterm-EH activity of human sEH; experiment: Reversibility; format: biochemical
[11] = tested on: a series of esterases and amidases; experiment: Selectivity: esterases and amidases inhibition; format: biochemical
[12] = read-out: IC50 (nominal inhibition column), nominal / overall value
[13] = read-out: IC50 Day 1, Day 1, 3 plates
[14] = read-out: IC50 Day 2, Day 2, 3 plates
[15] = read-out: IC50 Day 3, Day 3, 3 plates
[16] = 20 nM human sEH with 10 μM for 15 min, then dialysis
[17] = 5 mM glutathione before 10 μM for 5 min

Nominal Inhibition (%) ([3]; [I] 0.8 μM): 19 ± 4% | Nominal Inhibition (%) ([3]; [I] 1.6 μM): 39 ± 5% | Nominal Inhibition (%) ([3]; [I] 3.1 μM): 70 ± 3% | Nominal Inhibition (%) ([3]; [I] 6.3 μM): 91 ± 1% | Nominal Inhibition (%) ([3]; [I] 12.5 μM): 98 ± 1% | IC50 [3, 12]: 2.2 ± 0.3 µM | IC50 [3, 13]: 1.8 ± 0.2 µM | IC50 [3, 14]: 2.3 ± 0.2 µM | IC50 [3, 15]: 2.4 ± 0.1 µM
SMILES: CCCCCCCCCCCCOP(=O)(O)O [C00003, dodecyl phosphoric acid]
inhibition of Nterm-phos in library screen ([3]; 1 μM): more than 50% | inhibition of Nterm-phos in library screen ([3]; 10 μM): more than 50%

Nominal Inhibition (%) ([3]; [I] 1.6 μM): 9 ± 6% | Nominal Inhibition (%) ([3]; [I] 3.1 μM): 26 ± 4% | Nominal Inhibition (%) ([3]; [I] 6.3 μM): 54 ± 4% | Nominal Inhibition (%) ([3]; [I] 12.5 μM): 78 ± 3% | Nominal Inhibition (%) ([3]; [I] 25 μM): 89 ± 1% | IC50 [3, 12]: 6.6 ± 0.8 µM | IC50 [3, 13]: 6.3 ± 0.3 µM | IC50 [3, 14]: 6.1 ± 0.3 µM | IC50 [3, 15]: 7.5 ± 1.2 µM
SMILES: CCCCCCCCCCCCS(=O)(=O)O [C00002, dodecyl sulfonate]

The next lines start with the compound.

SMILES: CCCCC(CC)CCC(CC(C)C)OS(=O)(=O)O (stereo not shown) [sodium tetradecyl sulfate]
critical micelle concentration [1]: around 2 mM

SMILES: O=C(O)c1ccccc1C(=O)Nc1ccc(S(=O)(=O)Nc2nccs2)cc1 [phthalyl-sulfathiazole]
IC50 [2]: > 100 µM

SMILES: O=c1c2ccccc2[se]n1-c1ccccc1 [ebselen]
IC50 ratio Cterm-EH over Nterm-phos [4]: 5 fold | IC50 ([4]; incubation time 1 min): 2 ± 0.3 µM | IC50 ([4]; incubation time 15 min): 0.85 ± 0.05 µM | Ki [5]: 0.55 µM | ratio of ki, Nterm-phos over Cterm-EH [5]: around 7 fold | first-order formation rate of the covalent enzyme-inhibitor complex (ki), Nterm-phos ([5]; n = 3): 2.58 ± 0.05 min⁻¹ | time to stable inhibition of Nterm-phos [6]: less than a minute | recovery of Nterm-phos activity after dialysis [6, 16]: not able to recover any | effect of glutathione pretreatment on Nterm-phos activity [6, 17]: protected | inhibition of Nterm-phos expressed alone [7]: totally inhibited | inhibition of human alkaline phosphatase [8]: did not inhibit; also recorded: not the other enzymes tested | inhibition of Cterm-EH expressed alone (Cterm-EH expressed alone): did not significantly inhibit | inhibition of human microsomal EH (human microsomal EH): not the other enzymes tested | first-order formation rate of the covalent enzyme-inhibitor complex (ki), Cterm-EH [9]: 0.39 ± 0.07 min⁻¹ | recovery of Cterm EH activity after dialysis [10, 16]: not able to recover any | effect of glutathione pretreatment on Cterm-EH activity [10, 17]: protected | Cterm-EH activity recovered on glutathione added after exposure ([10]; glutathione added 5 min after exposure): 30% | IC50 [2]: 0.4 ± 0.02 µM | inhibition of esterases and amidases [11]: not the other enzymes tested

SMILES: CC(=O)N1CCN(c2ccc(OCC3COC(Cn4ccnc4)(c4ccc(Cl)cc4Cl)O3)cc2)CC1 (stereo not shown) [ketoconazole]
IC50 [2]: > 100 µM

SMILES: S=C(S)NCCNC(=S)S [Nabam]
inhibition at 10 µM [3]: > 50% | IC50 [2]: > 100 µM

SMILES: O=C1c2ccccc2C(=O)N1SC(Cl)(Cl)Cl [Folpet]
inhibition at 10 µM [3]: > 50% | IC50 [2]: 25 ± 3 µM
